According to patent US20110059114A1, “Compositions and Methods for the Treatment of Radioresistant Glioma Stem Cells” (DUKE UNIVERSITY, priority 2009, published 2011):

How the values were obtained:
[1] = tested on: CD133+ cells enriched from medulloblastoma cell lines; conditions: cited from earlier work
T4302 CD133+ cells [2] = assay: Trypan blue exclusion assay; type: cell-based, human; conditions: two days after 3-Gy radiation
Protocol: (§1) FIG. 2 is a series of graphs illustrating that γ-secretase inhibitors enhance radiation-induced cell death in glioma stem cells. (A) T4302 CD 133+ cells were pre-treated with DAPT or L685,458 for 4 hours and irradiated at 3 Gy. Percentage of dead cells was determined by trypan blue exclusion assay at 48 hours after radiation exposure. (B) T4302 CD 133+ cells were treated with GSIs ±radiation as indicated. Cells were then plated at 3000 cells per well in 96-well plates. Relative caspase 3/7 activities were determined by normalizing caspase activities to the corresponding cell titers. (C) T4302 CD 133+ cells were treated as described in FIG. 2A. 24 or 48 hours after radiation exposure, cells were labeled with FITC-conjugated Annexin V staining kit (BD Sciences) according to manufacturer's instructions and analyzed by flow cytometry. (D) T4302 CD 133+ cells were pre-treated with 2 μM DAPT for 4 hours, and were left unirradiated or irradiated at 1, 2 or 3 Gy. Relative caspase 3/7 activities were determined at 72 hours after radiation. (E) T4302 CD133+ cells were pre-treated with DAPT at indicated concentrations for 4 hours and irradiated at 3 Gy. Relative caspase activities were determined at 48 or 72 hours after radiation. *: p<0.01 by Student's t-test; #: p<0.01 by one-way ANOVA.

Chk1 and Chk2 = assay: Immunoblotting of activating phosphorylation of Chk1 and Chk2; type: cell-based, human; conditions: following radiation, pretreated 24 hours
Protocol: (A) T4302 CD133+ cells were pretreated with DPAT or L685,458 for 24 hours prior radiation. One hour after radiation exposure, cells were harvested. The levels of activating phosphorylation of Chk1 and Chk2 were assessed by immunoblotting. (B) T4302 CD133+ cells were treated with 2 μM DAPT at 4, 24 hours prior to radiation (−24 hrs, or -4 hrs), or at 0, 4, 24 hours after radiation. Relative caspase 3/7 activities were measured 3 days after radiation exposure. *: p<0.001 by Student's t-test.
Antibodies, DNA constructs, lentiviruses and other reagents. The antibodies purchased from Cell Signaling Technology (Danvers, M A) include phosphor-S296-Chk1 (2349), total Chk1 (2345), phosphor-T68-Chk2 (2661), total Chk2 (2662), phospho-5473 Akt (#9271), total Akt (#9272), PTEN (#9556), phospho-S15-p53 (#9286), Bcl-2 (#2870), Bcl-xL (#2764), Mcl-1 (#4572), Puma (#4976). Other antibodies used in this study are p53 antibody (#sc-126, Santa Cruz Biotechnology, Santa Cruz, Calif.), and actin antibody (Millipore, Billerica, Mass.). The pcDNA3-Notch1 construct was kindly provided by Dr. Spyros Artavanis-Tsakonas, Harvard University. The coding sequences of intracellular domain of Notch1 (amino acid residues 1744-2556) was amplified by PCR and subcloned into the lentiviral vector pCDH-CMV-EF1-puro (System Biosciences, Mountain View, Calif.) through the EcoRI and NotI sites. […]

T4302 CD133+ cells [3] = assay: Annexin V staining, flow cytometry; type: cell-based, human
Protocol: as §1

Notch signaling = assay: Notch-responsive luciferase reporter (RBP-Jκ reporter) assay; type: cell-based, human; conditions: T4302 CD133+ cells; 2 μM DAPT or 0.5 μM L685,458 over night
Excerpt: (§2) FIG. 1 is a series of graphs illustrating that γ-secretase inhibitors reduce cell growth and clonogenic survival of glioma stem cells following radiation. (A) T4302 CD133+ glioma stem cells were transfected with a Notch-responsive luciferase reporter (RBP-JK reporter) pre-mixed with the vector directing constitutive expression of Renilla luciferase. Cells were left unirradiated or irradiated at 3 Gy, and were then collected to measure luciferase activities at time points as indicated. […] The relative mRNA levels of Hes2 were determined by quantitative real-time PCR at the time points as indicated. […] Total viable cell numbers were then determined by the CellTiter-Glo Luminescent Cell Viability Assay (Promega) for the following five days. […] Cells were then plated to form neurospheres, and the surviving fractions were determined as described in methods. […] (F,G) Neurosphere formation of T3359 and T4105 CD 133+ cells treated with GSIs alone, 3-Gy radiation alone, or the combination was determined as described in FIG. 1E. *: p<0.05 by Student's t-test; #: p<0.001 by one-way ANOVA.
Luciferase assay. […] The luciferase activities were determined by the Dual-luciferase assay system (Promega).

[4] = tested on: T4302 CD133+ glioma stem cells; assay: Growth curve, CellTiter-Glo Luminescent Cell Viability Assay; type: cell-based, human; conditions: without radiation treatment, day five; 2 μM DAPT or 0.5 μM L685,458
Excerpt: as §2
Growth Curve, caspase 3/7 assay, and clonogenic survival assay. […] Cell number was measured for 5 days using the CellTiter-Glo assay kit (Promega, Madison, […].). […]

| SMILES | apoptosis and differentiation in CD133+ cells [1] | apoptosis in nestin-expressing cells in comparison to nestin-negative cells [1] | tumorigenic capacity of CD133+ cells [1] | dead cells (T4302 CD133+ cells [2]) | activating phosphorylation of Chk1 or Chk2 (Chk1 and Chk2) | Annexin V-positive labeled cells (T4302 CD133+ cells [3]; 24 hours following 3 Gy radiation) | Annexin V-positive labeled cells (T4302 CD133+ cells [3]; 48 hours following 3 Gy radiation) | Notch signaling in glioma stem cells (Notch-responsive luciferase reporter) (Notch signaling) | sham-treated cells more than GSI-treated cells (total cell number) [4] |
| --- | --- | --- | --- | --- | --- | --- | --- | --- | --- |
| O=S(=O)(NC1[C@@H]2CC[C@H]1Cc1ccccc1C2)c1cccs1 (stereo partly drawn) [GSI-18] | induces apoptosis and differentiation | 10 fold | impairs the tumorigenic capacity |  |  |  |  |  |  |
| CC(C)C[C@H](NC(=O)[C@H](Cc1ccccc1)C[C@@H](O)[C@H](Cc1ccccc1)NC(=O)OC(C)(C)C)C(=O)N[C@@H](Cc1ccccc1)C(N)=O [L685,458] |  |  |  | 60% | Neither of DAPT or L685,458 significantly altered | not obvious | significantly increased | blocked | 60% |
